Data on 19 compounds can be found in patent US8435978B2, “Substituted sulfonamide compounds” (Gruenenthal GmbH, priority 2006, dated 2013).

Counter-ions that a name gives are not always drawn.

For test [1], the target named is T1, human B1R receptor (Homo sapiens, UniProt P46663).
T1 construct: host or cells: CHO K1 cells (Chinese hamster ovary), stably transfected
T1 sequence (P46663 1-353): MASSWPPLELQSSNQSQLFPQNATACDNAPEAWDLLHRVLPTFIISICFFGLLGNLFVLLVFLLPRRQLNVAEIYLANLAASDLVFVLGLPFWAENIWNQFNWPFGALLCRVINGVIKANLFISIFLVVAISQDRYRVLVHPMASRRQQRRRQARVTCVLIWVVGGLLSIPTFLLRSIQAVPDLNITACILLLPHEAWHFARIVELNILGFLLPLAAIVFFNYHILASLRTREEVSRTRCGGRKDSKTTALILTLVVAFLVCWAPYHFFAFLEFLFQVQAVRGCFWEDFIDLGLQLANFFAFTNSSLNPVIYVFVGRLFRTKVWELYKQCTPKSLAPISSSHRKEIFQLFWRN
Nature of the test: Functional study on the bradykinin receptor 1 (B1R), FLIPR Ca2+ assay, hB1R cells. The note with it: agonist Lys-Des-Arg9-bradykinin 0.5 nM, % inhibition compared with the maximum achievable inhibition; for inhibition at 10 µM: CHO-K1, test substance 10 μM, read-out: B1R Antagonism, human [10 μM] % Inhibition. The class given is cell-based. The method in brief:
(§1)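 Readout: peak Fluo-4 Ca2+ fluorescence, FLIPR. Stable CHO K1 hB1R or rB1R cells; cpd 10 μM, 10 min preincubation, then agonist (hB1R: Lys-Des-Arg9-BK 0.5 nM; rB1R: Des-Arg9-BK 100 nM). Value = % inhibition relative to maximal achievable inhibition.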

In test [2] the target is T2, B1R receptor of the rat (Rattus norvegicus, UniProt P97583).
T2 construct: host or cells: CHO K1 cells (Chinese hamster ovary), stably transfected
T2 sequence (P97583 1-337): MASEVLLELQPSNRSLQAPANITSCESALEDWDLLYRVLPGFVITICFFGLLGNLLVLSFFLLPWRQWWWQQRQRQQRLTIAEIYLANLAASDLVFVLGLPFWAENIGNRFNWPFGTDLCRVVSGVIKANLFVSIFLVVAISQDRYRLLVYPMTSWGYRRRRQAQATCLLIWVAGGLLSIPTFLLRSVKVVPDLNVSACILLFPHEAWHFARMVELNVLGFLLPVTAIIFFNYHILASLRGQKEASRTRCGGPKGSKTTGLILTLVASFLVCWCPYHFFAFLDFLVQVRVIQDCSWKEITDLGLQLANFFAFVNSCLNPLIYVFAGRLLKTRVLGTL
Put plainly: Functional study on the bradykinin receptor 1 (B1R), FLIPR Ca2+ assay, rB1R cells. The class given is cell-based. The note with it: agonist Des-Arg9-bradykinin 100 nM, % inhibition compared with the maximum achievable inhibition; for inhibition at 10 µM: CHO-K1, test substance 10 μM, read-out: B1R Antagonism, rat [10 μM] % Inhibition. A digest of the protocol:
as §1

Take `O=C(COCC1CCCN1S(=O)(=O)c1ccc(Cl)c(Cl)c1)N1CCN(CC2CCCCC2)CC1` (centres unmarked) [Example 54, 1-(4-cyclohexylmethyl-piperazin-1-yl)-2-[1-(3,4-dichloro-phenylsulfonyl)-pyrrolidin-2-ylmethoxy]-ethanone]: the inhibition (commonly the relative decrease from the control value, in per cent) at 10 µM in test [1] is 63.8%; in test [2], 0%.
On the same counts, the results for `COc1cc(C)c(S(=O)(=O)N2CCCCC2COCC(=O)N2CCN(C3CCOCC3)CC2)c(C)c1` (centres unmarked) [Example 104, 2-((1-(4-methoxy-2,6-dimethylphenylsulfonyl)piperidin-2-yl)methoxy)-1-(4-(tetrahydro-2H-pyran-4-yl)piperazin-1-yl)ethanone] are 105% and 101%.
For `COc1cc(C)c(S(=O)(=O)N2CCCC2COCC(=O)N2CCN(c3ccncc3)CC2)c(C)c1` (centres unmarked) [Example 274, 2-((1-(4-methoxy-2,6-dimethylphenylsulfonyl)pyrrolidin-2-yl)methoxy)-1-(4-(pyridin-4-yl)piperazin-1-yl)ethanone], in that order: 104% and 98.1%.
On the same counts, the results for `O=C(COCC1CCCCN1S(=O)(=O)c1ccc(Cl)c(Cl)c1)N1CCN(CCN2CCCCC2)CC1` (centres unmarked) [Example 42, 2-((1-(3,4-dichlorophenylsulfonyl)piperidin-2-yl)methoxy)-1-(4-(2-(piperidin-1-yl)-ethyl)piperazin-1-yl)ethanone] are 70.6% and 57.9%.
`COc1cc(C)c(S(=O)(=O)N2CCCCC2COCC(=O)N(C)C(CN2CCCC2)c2ccccc2)c(C)c1` (centres unmarked) [Example 241, 2-((1-(4-methoxy-2,6-dimethylphenylsulfonyl)piperidin-2-yl)methoxy)-N-methyl-N-(1-phenyl-2-(pyrrolidin-1-yl)ethyl)acetamide]: the results for the inhibition at 10 µM in test [1] and in test [2] were 104% and 99.3%, respectively.
For `O=C(COCC1CCCCN1S(=O)(=O)c1c(Cl)cccc1Cl)N1CCN(c2ccccn2)CC1` (centres unmarked) [Example 316, 2-((1-(2,6-dichlorophenylsulfonyl)piperidin-2-yl)methoxy)-1-(4-(pyridin-2-yl)piperazin-1-yl)ethanone], in that order: 82.7% and 98.2%.
Consider `O=C(COCC1CCCN1S(=O)(=O)c1c(Cl)cc(Cl)cc1Cl)NCc1ccc(N2CCCCC2)cc1` (centres unmarked) [Example 71, N-(4-piperidin-1-yl-benzyl)-2-[1-(2,4,6-trichloro-phenylsulfonyl)-pyrrolidin-2-yl-methoxy]-acetamide], for which the results for the inhibition at 10 µM in test [1] and in test [2] were 53.2% and 95.2%, respectively.
`COc1cc(C)c(S(=O)(=O)N2CCCC2COCC(=O)N2CCN(c3ccccc3)CC2)c(C)c1` (centres unmarked) [Example 461, 2-((1-(4-methoxy-2,6-dimethylphenylsulfonyl)pyrrolidin-2-yl)methoxy)-1-(4-phenylpiperazin-1-yl)ethanone]: the inhibition at 10 µM stood at 101% in test [1] and 99.1% in test [2].
For `COc1cc(C)c(S(=O)(=O)N2CCCCC2COCC(=O)NCc2cccnc2)c(C)c1` (centres unmarked) [Example 345, 2-((1-(4-methoxy-2,6-dimethylphenylsulfonyl)piperidin-2-yl)methoxy)-N-(pyridin-3-ylmethyl)acetamide], in that order: 22.3% and 95.9%.
Consider `CN1CCC(N2CCN(C(=O)COCC3CCCCN3S(=O)(=O)c3c(Cl)nc4sccn34)CC2)CC1` (centres unmarked) [Example 129, 2-((1-(6-chloroimidazo[2,1-b]thiazol-5-ylsulfonyl)piperidin-2-yl)methoxy)-1-(4-(1-methylpiperidin-4-yl)piperazin-1-yl)ethanone], for which the inhibition at 10 µM in test [1] was 0.03%; in test [2], 31.2%.
Take `COc1cc(C)c(S(=O)(=O)N2CCCCC2COCC(=O)N2CCC(COc3ccncc3)CC2)c(C)c1` (centres unmarked) [Example 188, 2-((1-(4-methoxy-2,6-dimethylphenylsulfonyl)piperidin-2-yl)methoxy)-1-(4-((pyridin-4-yloxy)methyl)piperidin-1-yl)ethanone]: the inhibition at 10 µM in test [1] and in test [2] was 102% each time.
Consider `CN1CCC(N2CCN(C(=O)COCC3CCCCN3S(=O)(=O)c3cccc4c(N(C)C)cccc34)CC2)CC1` (centres unmarked) [Example 158, 2-((1-(5-(dimethylamino)naphthalen-1-ylsulfonyl)piperidin-2-yl)methoxy)-1-(4-(1-methylpiperidin-4-yl)piperazin-1-yl)ethanone dihydrochloride], for which the inhibition at 10 µM is 98.5% in test [1] and 99.3% in test [2].
Take `COc1ccc(S(=O)(=O)N2Cc3ccccc3C[C@H]2COCC(=O)N2CCN(C3CCN(C)CC3)CC2)cc1` [Example 142, (S)-2-((2-(4-methoxyphenylsulfonyl)-1,2,3,4-tetrahydroisoquinolin-3-yl)methoxy)-1-(4-(1-methylpiperidin-4-yl)piperazin-1-yl)ethanone]: the inhibition at 10 µM was 89.9% in test [1] and 63% in test [2].
Consider `COc1cc(C)c(S(=O)(=O)N2CCCCC2COCC(=O)N2CCN(c3ncccc3C#N)CC2)c(C)c1` (centres unmarked) [Example 513, 2-(4-(2-((1-(4-methoxy-2,6-dimethylphenylsulfonyl)piperidin-2-yl)methoxy)acetyl)piperazin-1-yl)nicotinonitrile], for which the inhibition at 10 µM in test [1] was 73.5%; in test [2] it was 101%.
On the same counts, the results for `CN1CCN(C2CCN(C(=O)COCC3CCCCN3S(=O)(=O)c3ccc(Cl)c(Cl)c3)CC2)CC1` (centres unmarked) [Example 28, 2-[1-(3,4-dichloro-phenylsulfonyl)-piperidin-2-ylmethoxy]-1-[4-(4-methyl-piperazin-1-yl)-piperidin-1-yl]-ethanone] are 84.7% and 0%.
With `COc1cc(C)c(S(=O)(=O)N2CCCCC2COCC(=O)N2CCC(NCC(c3cccnc3)N3CCOCC3)CC2)c(C)c1` (centres unmarked) [Example 136, 2-((1-(4-methoxy-2,6-dimethylphenylsulfonyl)piperidin-2-yl)methoxy)-1-(4-(2-morpholin-2-(pyridin-3-yl)ethylamino)piperidin-1-yl)ethanone], the “B1R Antagonism, human [10 μM] % Inhibition” value in test [1] (test substance 10 μM, hB1R CHO K1 cells) is on record as 103.97%. Also, the “B1R Antagonism, rat [10 μM] % Inhibition” value in test [2] (test substance 10 μM, rB1R CHO K1 cells) worked out at 98.94%.
In the case of `O=C(COCC1CCCCN1S(=O)(=O)c1c(Cl)cc(Cl)cc1Cl)NCCN1CCCC1` (centres unmarked) [Example 459, N-(2-(pyrrolidin-1-yl)ethyl)-2-((1-(2,4,6-trichlorophenylsulfonyl)piperidin-2-yl)methoxy)acetamide], the inhibition at 10 µM is 57.1% in test [1] and 102% in test [2].
As to `O=C(COCC1CCCCN1S(=O)(=O)c1c(Cl)cc(Cl)cc1Cl)NCc1ccc(N2CCOCC2)cc1` (centres unmarked) [Example 581, N-(4-morpholinobenzyl)-2-((1-(2,4,6-trichlorophenylsulfonyl)piperidin-2-yl)methoxy)acetamide], the inhibition at 10 µM in test [1] turned out to be 27.5%; in test [2] it was 76.3%.
For `COc1cc(C)c(S(=O)(=O)N2CCCCC2COCC(=O)NCc2cccc(N3CCOCC3)c2)c(C)c1` (centres unmarked) [Example 437, 2-((1-(4-methoxy-2,6-dimethylphenylsulfonyl)piperidin-2-yl)methoxy)-N-(3-morpholinobenzyl)acetamide], in that order: 36.1% and 102%.
